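In this assay, cells in 96-well plates receive the compound at five concentrations for 48 hours. Endpoints are linearly interpolated between the surrounding concentrations. GI50 is the concentration that inhibits growth by half.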 The source made the active and inactive calls. No stated cut-off is given here; in the data, active = GI50 up to about 1.1 µM and inactive = higher.
How the values were obtained:
Test in all cases: NCI tumour cell line growth inhibition, 48 h
UO-31 = tested on: UO-31
KM12 = tested on: KM12
786-0 = tested on: 786-0
HCT-116 = tested on: HCT-116
SW-620 = tested on: SW-620
SF-295 = tested on: SF-295
T47D = tested on: T47D
HT-29 = tested on: HT-29
Hs-578T = tested on: Hs-578T
DU-145 = tested on: DU-145
IGROV-1 = tested on: IGROV-1
NCI-H460 = tested on: NCI-H460
ACHN = tested on: ACHN
CCRF-CEM = tested on: CCRF-CEM
CAKI-1 = tested on: CAKI-1
HCT-15 = tested on: HCT-15
SK-MEL-28 = tested on: SK-MEL-28
RXF 393 = tested on: RXF 393
BT-549 = tested on: BT-549
HOP-92 = tested on: HOP-92

| SMILES | GI50 (UO-31) | GI50 (KM12) | GI50 (786-0) | GI50 (HCT-116) | GI50 (SW-620) | GI50 (SF-295) | GI50 (T47D) | GI50 (HT-29) | GI50 (Hs-578T) | GI50 (DU-145) | GI50 (IGROV-1) | GI50 (NCI-H460) | GI50 (ACHN) | GI50 (CCRF-CEM) | GI50 (CAKI-1) | GI50 (HCT-15) | GI50 (SK-MEL-28) | GI50 (RXF 393) | GI50 (BT-549) | GI50 (HOP-92) |
| --- | --- | --- | --- | --- | --- | --- | --- | --- | --- | --- | --- | --- | --- | --- | --- | --- | --- | --- | --- | --- |
| COC(=O)[C@@]1(NC(=O)C(CC(=O)OC(C)(C)C)NC(=O)OC(C)(C)C)C[C@H]1C (stereo not given in full) | > 100 µM (inactive) | > 100 µM (inactive) | > 100 µM (inactive) | > 100 µM (inactive) | > 100 µM (inactive) | > 100 µM (inactive) | > 100 µM (inactive) | > 100 µM (inactive) | > 100 µM (inactive) | > 100 µM (inactive) | > 100 µM (inactive) | > 100 µM (inactive) | > 100 µM (inactive) | > 100 µM (inactive) | > 100 µM (inactive) | > 100 µM | > 100 µM (inactive) | > 100 µM (inactive) | > 100 µM (inactive) |  |
| O=C(NCCc1n[nH]c2c1C(=O)C=C(Nc1ccccc1)C2=O)OCc1ccccc1 | > 100 µM (inactive) | > 100 µM (inactive) | 47.1 µM (inactive) | 97.3 µM (inactive) | > 100 µM (inactive) | > 100 µM (inactive) | 53.8 µM (inactive) | > 100 µM (inactive) | > 100 µM (inactive) | > 100 µM (inactive) | > 100 µM (inactive) | > 100 µM (inactive) | > 100 µM (inactive) | > 100 µM (inactive) | > 100 µM (inactive) | > 100 µM |  | > 100 µM (inactive) | > 100 µM (inactive) | > 100 µM (inactive) |
| Clc1cc(OCC23CC4CC(CC(C4)C2)C3)nc(OCC23CC4CC(CC(C4)C2)C3)n1 | > 100 µM (inactive) | > 100 µM (inactive) | > 100 µM (inactive) | > 100 µM (inactive) | > 100 µM (inactive) | 41.7 µM (inactive) | > 100 µM (inactive) | > 100 µM (inactive) | > 100 µM (inactive) | > 100 µM (inactive) | > 100 µM (inactive) | > 100 µM (inactive) | > 100 µM (inactive) | > 100 µM (inactive) | > 100 µM (inactive) | > 100 µM | > 100 µM (inactive) | > 100 µM (inactive) | > 100 µM (inactive) |  |
| O=C1C=C2C(=NC34CCCCC3C(c3ccccc3)C3=C(c5ccccc5CC3)N24)c2ccccc21 (stereo not given) |  | > 10 µM (inactive) | > 10 µM (inactive) | > 10 µM (inactive) | > 10 µM (inactive) | > 10 µM (inactive) | > 10 µM (inactive) | > 10 µM (inactive) | > 10 µM (inactive) | > 10 µM (inactive) | > 10 µM (inactive) | > 10 µM (inactive) | > 10 µM (inactive) | > 10 µM (inactive) | > 10 µM (inactive) | > 10 µM | > 10 µM (inactive) | > 10 µM (inactive) | > 10 µM (inactive) | > 10 µM (inactive) |
| CCC(CS(=O)(=O)O)[N+](=O)[O-] (stereo not given) | > 100 µM (inactive) | > 100 µM (inactive) | > 100 µM (inactive) | > 100 µM (inactive) | > 100 µM (inactive) | > 100 µM (inactive) | > 100 µM (inactive) | > 100 µM (inactive) | > 100 µM (inactive) | > 100 µM (inactive) | > 100 µM (inactive) | > 100 µM (inactive) | > 100 µM (inactive) | > 100 µM (inactive) | > 100 µM (inactive) | > 100 µM | > 100 µM (inactive) | > 100 µM (inactive) | > 100 µM (inactive) |  |
